Results published in PMC10135050, “Neutralizing Carbapenem Resistance by Co-Administering Meropenem with Novel β-Lactam-Metallo-β-Lactamase Inhibitors” (Antibiotics, 2023).
Values belong to the molecule of their own block, whether it stands above or below them.

Tests used:
[1] = design: method as in PMID 26849010, PMID 32903882; conditions: cited from earlier work
[2] = design: method as in PMID 32179522; conditions: cited from earlier work
[3] = in vivo; cited from earlier work
[4] = target: T1, Recombinant human glyoxylase II (Glo2) (Homo sapiens, UniProt Q16775); assay: Non-specific binding to zinc in non-MBLs, glyoxylase II activity; assay type: biochemical; conditions: 50–500 µM
T1 construct: purchased BioVision Inc., Waltham, MA, USA
Text: Metal chelators are known to suffer from off-target specificity and as a result have been criticized as potential MBLIs in vivo [44].
The methodology has been previously described. EDTA (purchased from Merck KGaA, Darmstadt, Germany) was included as a positive control.

SMILES: c1ccc(CN(CCN(Cc2ccccn2)Cc2ccccn2)Cc2ccccn2)nc1 [TPEN, N,N,N′,N′-Tetrakis (2-Pyridylmethyl) Ethylenediamine]
Cytotoxicity [1]: cytotoxicity

SMILES: CN(C[C@H](O)[C@@H](O)[C@H](O)[C@H](O)CO)C(=O)c1ccc(CN(Cc2ccccn2)Cc2ccccn2)nc1 [ZN148]
Decrease in the bacterial load in vivo [2]: approximately 3 log10 units

SMILES: O=C(O)CN1CCN(CC(=O)O)CCN(CC(=O)O)CC1 [NOTA]
Bioavailability [3]: poor bioavailability

SMILES: COC(=O)C(CC(=O)N[C@@H]1C(=O)N2C(C(=O)O)=C(C[n+]3ccccc3)CS[C@H]12)N1CCN(CC(=O)O)CCN(CC(=O)O)CC1 (some centres unmarked) [BP1]
Decrease in the bacterial load in vivo [2]: approximately 3 log10 units

Glyoxylase II activity [4]: significantly reduced
SMILES: O=C(O)CN(CCN(CC(=O)O)CC(=O)O)CC(=O)O [EDTA, reference compound]
